Test: xn = mol fraction of the nth substance listed

CCNc1ccccc1 + CCC(C)O
viscosity [mPa·s], 101 kPa
Conditions	303.15 K	308.15 K
x1 = 0.0785	2.682	2.105
x1 = 0.1325	2.642	2.089
x1 = 0.1965	2.596	2.071
x1 = 0.2564	2.55	2.052
x1 = 0.3214	2.498	2.028
x1 = 0.3965	2.433	1.995
x1 = 0.4562	2.378	1.964
x1 = 0.5124	2.322	1.932
x1 = 0.5895	2.24	1.882
x1 = 0.6547	2.164	1.835
x1 = 0.7325	2.07	1.773
x1 = 0.8025	1.983	1.714
x1 = 0.8745	1.894	1.653

ClCCCl + C1COCCO1
303.15 K, 101.33 kPa
Conditions	viscosity [mPa·s]
x2 = 0.0462	0.7468
x2 = 0.1984	0.7909
x2 = 0.2786	0.8101
x2 = 0.3663	0.8307
x2 = 0.4515	0.8512
x2 = 0.567	0.8832
x2 = 0.6362	0.9068
x2 = 0.7673	0.9595
x2 = 0.8428	0.996
x2 = 0.9185	1.037

ClCCCl + CC#N
101.33 kPa
Conditions	viscosity [mPa·s]
298 K, x2 = 0.0717	0.754
298 K, x2 = 0.1909	0.698
298 K, x2 = 0.2938	0.65
298 K, x2 = 0.3884	0.607
298 K, x2 = 0.4948	0.558
298 K, x2 = 0.5896	0.515
298 K, x2 = 0.6957	0.468
298 K, x2 = 0.7981	0.425
298 K, x2 = 0.8955	0.385
303.15 K, x2 = 0.113	0.674
303.15 K, x2 = 0.1744	0.6458
303.15 K, x2 = 0.2643	0.6069
303.15 K, x2 = 0.3563	0.5679
303.15 K, x2 = 0.4072	0.5471
303.15 K, x2 = 0.543	0.4921
303.15 K, x2 = 0.6825	0.4372
303.15 K, x2 = 0.8073	0.3903
303.15 K, x2 = 0.8792	0.3647
303.15 K, x2 = 0.9181	0.3513

C[Si]1(C)O[Si](C)(C)O[Si](C)(C)O[Si](C)(C)O1 + CCCCCCCCCCCCC
viscosity [mPa·s], 103 kPa
Conditions	298.15 K	308.15 K	318.15 K
x1 = 0.05	1.619	1.351	1.145
x1 = 0.1	1.61	1.343	1.139
x1 = 0.15	1.604	1.339	1.137
x1 = 0.2	1.602	1.338	1.134
x1 = 0.2501	1.604	1.346	1.136
x1 = 0.3	1.608	1.342	1.139
x1 = 0.35	1.614	1.345	1.143
x1 = 0.4	1.62	1.355	1.149
x1 = 0.45	1.636	1.366	1.159
x1 = 0.5	1.649	1.375	1.167
x1 = 0.55	1.667	1.389	1.177
x1 = 0.6	1.69	1.406	1.191
x1 = 0.65	1.715	1.43	1.209
x1 = 0.7	1.751	1.458	1.24
x1 = 0.75	1.794	1.498	1.269
x1 = 0.8	1.826	1.53	1.293
x1 = 0.85	1.89	1.572	1.328
x1 = 0.9	1.941	1.62	1.365
x1 = 0.95	1.996	1.659	1.405

CC(C)C[C@H](NC(=O)[C@H](C)N)C(=O)O + O
viscosity [mPa·s], 101 kPa
Conditions	x1 = 3.33e-05	x1 = 7.01e-05	x1 = 0.000104	x1 = 0.000146	x1 = 0.000174	x1 = 0.0002197	x1 = 0.0002561	x1 = 0.0002862	x1 = 0.0003157	x1 = 0.0003701
305.15 K	0.7759	0.7781	0.7785	0.7806	0.7826	0.7869	0.796	0.8042	0.8098	0.8149
310.15 K	0.7079	0.7086	0.7126	0.7129	0.7165	0.7198	0.7242	0.7292	0.7334	0.7359
315.15 K	0.6492	0.6505	0.6525	0.6559	0.6596	0.6605	0.6629	0.6678	0.6692	0.6709

ClCCl + CCO
303.15 K, 101.3 kPa
Conditions	viscosity [mPa·s]
x2 = 0.0625	0.395
x2 = 0.1074	0.398
x2 = 0.1915	0.4103
x2 = 0.2935	0.4387
x2 = 0.4162	0.4914
x2 = 0.5331	0.5595
x2 = 0.6811	0.6721
x2 = 0.7823	0.767
x2 = 0.8482	0.8337
x2 = 0.9067	0.8949
x2 = 0.9571	0.9476

ClCCl + COC(C)=O
298.15 K, 101 kPa
Conditions	viscosity [mPa·s]
x1 = 0.1033	0.374
x1 = 0.1903	0.383
x1 = 0.2995	0.391
x1 = 0.4016	0.398
x1 = 0.5007	0.404
x1 = 0.5991	0.41
x1 = 0.7017	0.414
x1 = 0.8034	0.416
x1 = 0.9104	0.418
